# Measured values taken from ChEMBL document CHEMBL3132849, “Bioactive prenylated phenyl derivatives derived from marine natural products: novel scaffolds for the design of BACE inhibitors” (Medchemcomm, 2014).
# “And” between values parts separate entries of the source, which are not always exact repeats. Equal entries are not always repeated. Starred links: 1 amine or outer side, 2 acyl side, 3 side chain; linkers in the order of their positions; H or OH if unused. Non-standard residues stand in square brackets, D forms with d. Residues, ends and D or L forms follow the SMILES beside them. LeuΨ(S-CHOHCH2)Ala = CC(C)C[C@H](N[*:1])[C@@H](O)C[C@@H](C)C(=O)[*:2]
# Key:
# CHO = experiment: Cytotoxicity in Cricetulus griseus CHO cells expressing human APP751 at 10 uM; format: cell-based; conditions: chinese hamster
# [1] = target: Beta-secretase 1 (Homo sapiens) (UniProt P56817); experiment: Inhibition of BACE1 (unknown origin) expressed in human APP751 transfected CHO-7W cells assessed as inhibition of amyloid-beta (1 to 40) peptide production at 1 uM after 24 hrs by Abeta40 human ELISA Kit; format: cell-based
# [2] = target: Beta-secretase 1 (Homo sapiens) (UniProt P56817); experiment: Inhibition of recombinant human BACE1 using fluorogenic peptide 4 as substrate at 10 uM by FRET assay
# [3] = target: Beta-secretase 1 (Homo sapiens) (UniProt P56817); experiment: Inhibition of recombinant human BACE1 using fluorogenic peptide 4 as substrate at 1 uM by FRET assay
# [4] = target: Beta-secretase 1 (Homo sapiens) (UniProt P56817); experiment: Inhibition of BACE1 (unknown origin) expressed in human APP751 transfected CHO-7W cells assessed as inhibition of amyloid-beta (1 to 40) peptide production at 10 uM after 24 hrs by Abeta40 human ELISA Kit; format: cell-based
# [5] = target: Beta-secretase 1 (Homo sapiens) (UniProt P56817); conditions: CHO-7W, 3 uM
# Description: Inhibition of BACE1 in human APP751 transfected CHO-7W cells assessed as inhibition of amyloid-beta (1 to 40) peptide production at 3 uM after 24 hrs by Abeta40 human ELISA Kit
# [6] = target: Beta-secretase 1 (Homo sapiens) (UniProt P56817); experiment: Inhibition of recombinant human BACE1 assessed as fluorescence at 10 uM using FRET ASSAY KIT
# [7] = target: Beta-secretase 1 (Homo sapiens) (UniProt P56817); experiment: Inhibition of recombinant human BACE1 assessed as fluorescence at 1 uM using FRET ASSAY KIT
# [8] = Cytotoxicity in human SH-SY5Y cells at 1 to 10 uM; format: cell-based
# Chain of Beta-secretase 1 (Homo sapiens) (P56817 whole entry): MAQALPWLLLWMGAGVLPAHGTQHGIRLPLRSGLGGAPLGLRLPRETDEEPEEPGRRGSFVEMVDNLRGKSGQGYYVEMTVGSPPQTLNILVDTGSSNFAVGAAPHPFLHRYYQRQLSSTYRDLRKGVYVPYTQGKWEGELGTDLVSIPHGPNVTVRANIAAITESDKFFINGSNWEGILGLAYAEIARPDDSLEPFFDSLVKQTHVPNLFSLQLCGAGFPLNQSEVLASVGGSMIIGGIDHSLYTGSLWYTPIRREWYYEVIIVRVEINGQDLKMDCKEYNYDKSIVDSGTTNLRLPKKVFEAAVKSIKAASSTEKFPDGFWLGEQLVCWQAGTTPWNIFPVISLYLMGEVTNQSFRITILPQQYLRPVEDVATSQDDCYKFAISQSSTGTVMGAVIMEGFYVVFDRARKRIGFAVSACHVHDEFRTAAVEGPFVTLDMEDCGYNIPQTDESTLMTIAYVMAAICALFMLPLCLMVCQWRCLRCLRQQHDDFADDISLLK
SMILES,inhibition [1],inhibition [2],inhibition [3],inhibition [4],inhibition [5],inhibition [6],inhibition [7],Activity (CHO),Activity [8]
COc1ccccc1NC/C=C(\C)CC/C=C(\C)CCC=C(C)C,–,64%,94%,0%,–,–,–,–,–
CC(C)=CCC/C(C)=C/CC/C(C)=C/CNc1cc(C(=O)O)ccc1O,–,36%,100%,0%,–,–,–,–,–
COC(=O)c1ccc2c(c1)N(C/C=C(\C)CC/C=C(\C)CCC=C(C)C)C(=O)CO2,0%,22%,59%,29%,–,–,–,–,–
COc1ccc(C(=O)N[C@@H](Cc2ccccc2)[C@H](O)CNC2CC2)cc1NC/C=C(\C)CC/C=C(\C)CCC=C(C)C,10%,–,–,28%,–,34%,63%,–,–
CC(C)=CCC/C(C)=C/CC/C(C)=C/CN1C(=O)COc2ccc(C(=O)O)cc21,0%,17%,100%,0%,–,–,–,–,–
CC(C)=CCC/C(C)=C/CC/C(C)=C/CNc1cccc(C(=O)O)c1,–,25%,89%,–,–,–,–,–,Toxic
CCOC(=O)COc1ccc(C(=O)OC)cc1N(C/C=C(\C)CC/C=C(\C)CCC=C(C)C)CC(=O)OCC,14%,0%,100%,36%,–,–,–,–,–

# More lines, main results first:
inhibition [1],inhibition [2],inhibition [3],inhibition [4],inhibition [5],inhibition [6],inhibition [7],SMILES,Activity (CHO),Activity [8]
31%,0%,50%,–,–,–,–,COc1ccc(C(=O)O)cc1NC/C=C(\C)CC/C=C(\C)CCC=C(C)C,Toxic,–
–,5%,100%,–,–,–,–,CC(C)=CCC/C(C)=C/CC/C(C)=C/Cc1cc(C(=O)O)ccc1O,–,–
8% and 10%,0%,42% and 45%,30% and 47%,–,–,–,CC(C)=CCC/C(C)=C/CC/C(C)=C/CC/C(C)=C/Cc1cc(C(=O)O)ccc1O,–,–
–,–,–,–,80%,–,–,CC(C)C[C@H](NC(=O)[C@H](CC(N)=O)NC(=O)[C@@H](NC(=O)[C@@H](N)CCC(=O)O)C(C)C)[C@@H](O)C[C@@H](C)C(=O)N[C@@H](C)C(=O)N[C@@H](CCC(=O)O)C(=O)N[C@@H](Cc1ccccc1)C(=O)O (H-EVN[LeuΨ(S-CHOHCH2)Ala]AEF-OH),–,–
0%,27%,88%,0%,–,–,–,CCCOc1ccc(C(=O)OC)cc1NC/C=C(\C)CC/C=C(\C)CCC=C(C)C,–,–
3%,–,–,–,–,56%,100%,COC(=O)c1ccc(OC)c(NC[C@H](O)[C@@H](Cc2ccccc2)NC/C=C(\C)CCC=C(C)C)c1,Toxic,–
–,70%,100%,0%,–,–,–,COC(=O)c1ccnc(NC/C=C(\C)CC/C=C(\C)CCC=C(C)C)c1,–,–
14%,3%,93%,36%,–,–,–,CCCS(=O)(=O)Oc1ccc(C(=O)O)cc1NC/C=C(\C)CC/C=C(\C)CCC=C(C)C,–,–
0%,68%,100%,29%,–,–,–,COC(=O)c1ccc(OC)c(NC/C=C(\C)CC/C=C(\C)CCC=C(C)C)c1,–,–
24%,17%,87%,–,–,–,–,CC(=O)Oc1ccc(C(=O)O)cc1C/C=C(\C)CC/C=C(\C)CC/C=C(\C)CCC=C(C)C,Toxic,–
